# Test results reported in patent publication US9724312B2, “Agent for the prevention, improvement or treatment of retinal disease” (ROHTO PHARMACEUTICAL CO., LTD., priority 2012, dated 2017).
# Columns and labels:
# [1] = test system: rat models with glaucoma induced by NMDA; assay: Protective effect for retinal ganglion cells against nerve damage by NMDA (thickness of inner plexiform layer); type: in vivo; details: once a day
# Source text: In recent years the glutamate analogue NMDA (N-methyl-D-aspartate) has been widely reported to be one of causative agents of neurodegenerative diseases including Alzheimer's disease. In the ophthalmic field, NMDA is considered to be involved in optic nerve damage in glaucoma (Brain Research Bulletin, 81 (2010) 349-358). Accordingly, in this experiment rat models with glaucoma induced by NMDA were used to evaluate the neuroprotective effect of GGA.
# To Sprague-Dawley (SD) rats, the all-trans form, the 5Z-mono-cis form and teprenone were separately pre-administered by oral administration (Test Example 1), intravitreal administration (Test Example 2) or ocular instillation administration (Test Example 3) and 5 μL of NMDA was administered into the vitreous body to induce nerve damage. For Test Example 2, a marketed therapeutic eye drop for glaucoma, AIPHAGAN (trade name), was intravitreally administered as a positive control once a day for five days. For each of Test Examples, a base not containing GGA or AIPHAGAN was administered as a control in the same manner as described above.
# The dosage and regimen of Test Examples 1 to 3 are shown in Table 1 and the constitution of the base used in each tests are shown in Table 2.
# Three days after administration of NMDA, the eyeballs were harvested, fixed with half Karnovsky's fixative for 24 hours, embedded in paraffin, thin sectioned and stained with hematoxylin-eosin (HE) to prepare histopathological sections. The histological sections were observed under an optical microscope and the thickness (μm) of the inner plexiform layer (IPL) of the retina was measured. From the thickness of the inner plexiform layer (IPL) of the retina, the neuroprotective effects of the test preparations were evaluated.
# [2] = test system: retinal detachment-induced animal; details: intraperitoneal administration; cited from earlier work
# glaucoma rat model = details: intraperitoneal administration; cited from earlier work
# [3] = test system: mouse with visual cell damage induced by light irradiation; details: oral administration; cited from earlier work
# [4] = test system: mouse with retinal injury induced by ischemia; details: oral administration; cited from earlier work
# [5] = test system: multiple sclerosis mouse model; details: oral administration; cited from earlier work
# PC12 = assay: Protective effect against ischemic cell death induced by hypoxia and low glucose (Cell Titer-Glo cell viability); type: cell-based, rat; details: 30 μM, 2 h pre-incubation, then low glucose/zero percent O2 8 h, FIG. 1, n=10, Tukey-Kramer
# Source text: The progress of visual impairment in glaucoma is associated with retinal ganglion cell (RGC) death due to blood flow failure occurring near the optic nerve (Folia Pharmacol. Jpn. 128, 255-258 (2006)). With the use of PC12, which is a typical neural cell line established from rat adrenal […] pheochromocytoma and used also as a model cell for the functional evaluation of RGC (J Neurosci Res. 2000 May 15; 60(4): 495-503), the cytoprotective effect of GGA against ischemic cell death induced by hypoxia and low glucose was evaluated.
# Test samples were prepared as follows. The test substances were four types of GGAs that contain the all-trans form and the 5Z-mono-cis form at a weight ratio of 10:0, 8:2, 6:4, and 0:10, respectively. […]
# After 8 hours of incubation, 100 μL of an equivalent mixture of a cell viability detection reagent Cell Titer-Glo (Promega) and PBS was added to each well and the luminescence produced by the reaction with ATP in living cells was measured with a luminometer (GloMax; Promega). The cell viability was calculated from the measured luminescence by the following formula and the cytoprotective effect of GGA against oxidative stress by hydrogen peroxide was examined. Cell viability(%)=100×[(luminescence of base- or GGA-treated group)/(luminescence of non-treated group)]
# [6] = Test Example 1: oral 800 mg/kg, 2 days, NMDA 4 mM, FIG. 6, Dunnett
Molecule,"neuroprotective effect against nerve damage by NMDA compared with base (IPL thickness) [1, 6]",apoptosis of visual cells [2],expression of heat shock protein 70 [2],expression of heat shock protein 72 (glaucoma rat model),retinal ganglion cell death and optic nerve damage (glaucoma rat model),induction of thioredoxin and heat shock protein 72 in the retinal pigment epithelium [3],number of surviving retinal neurons [4],cell loss in the ganglion [5],number of degenerating axons in the optic nerve [5],visual function [5],cytoprotective effect compared with GGA 6:4 (PC12),"neuroprotective effect against nerve damage by NMDA compared with base (IPL thickness) ([1]; Test Example 2: intravitreal 0.05% w/v, 5 days, NMDA 40 mM, FIG. 7, Tukey-Kramer)"
teprenone,did not show a significant neuroprotective effect,reduced the apoptosis of visual cells significantly,induced the expression of heat shock protein 70,induced the expression of heat shock protein 72,reduced retinal ganglion cell death and thereby ameliorated optic nerve damage,induced thioredoxin and heat shock protein 72 in the retinal pigment epithelium,significantly increased the number of surviving retinal neurons,prevented cell loss in the ganglion,reduced the number of degenerating axons in the optic nerve,improved the visual function,,
"CC(=O)CC/C=C(/C)CC/C=C(\C)CC/C=C(\C)CCC=C(C)C [5Z-mono-cis form, (5Z,9E,13E)-6,10,14,18-tetramethyl-5,9,13,17-nonadecatetrae n-2-one]",significant neuroprotective effects,,,,,,,,,,significantly higher cytoprotective effects,significant neuroprotective effects
